Results reported in article PMC11538350, “Synthetic studies on the tetrasubstituted D-ring of cystobactamids lead to potent terephthalic acid antibiotics” (Communications Chemistry, 2024).
≈ marks a conversion by molar mass, not a printed value.

Legend:
Assay in all cases: MIC assay
A. baum. ATCC BAA-1710 = type: cell-based; conditions: Acinetobacter baumannii, ATCCBAA1710; read-out: MIC A. baum. ATCC BAA-1710
Method: (§1) All cystobactamids were evaluated in MIC-assays on a panel of representative ESKAPE strains with focus on A. baumannii (Tables 1 and 2). Compared to our previous work[10],[17],[18], we specifically included more challenging test strains with known resistances against gyrase inhibitors.
(§2) 2.1 Materials and Methods
(§3) Strains were cultivated according to standard procedures. Bacterial cryo-cultures were
(§4) resuspended into fresh MHBII (cation adjusted) medium. The resuspension
(§5) assay plate (Corning, #3788).
(§6) in parallel as a positive control. […]

E. coli LM705 = type: cell-based; conditions: Escherichia coli, LM705, read-out: MIC E. coli LM705
Method: as §1, §2, §3, §4, §5, §6

A. baum. CIP-107292 = type: cell-based; conditions: Acinetobacter baumannii, CIP107292; read-out: MIC A. baum. CIP-107292
Method: as §1, §2, §3, §4, §5, §6

S. aur. ATCC-29213 = type: cell-based; conditions: Staphylococcus aureus, ATCC29213; reference strain; read-out: MIC S. aur. ATCC-29213
Method: as §1, §2, §3, §4, §5, §6

K. pneum. KP10581 = type: cell-based; conditions: Klebsiella pneumoniae; read-out: MIC K. pneum. KP10581
Method: as §1, §2, §3, §4, §5, §6

E. coli ATCC-25922 = type: cell-based; conditions: Escherichia coli, ATCC25922; reference strain; read-out: MIC E. coli ATCC-25922
Method: as §1, §2, §3, §4, §5, §6

A. baum. R835 = type: cell-based; conditions: Acinetobacter baumannii; read-out: MIC A. baum. R835
Method: as §1, §2, §3, §4, §5, §6

E. cloacae ATCC BAA-2468 = type: cell-based; conditions: Enterobacter cloacae, ATCCBAA2468; read-out: MIC E. cloacae ATCC BAA-2468
Method: as §1, §2, §3, §4, §5, §6

[1] = test system: S. pneum. DSM-11865 (PRSP); type: cell-based; conditions: Streptococcus pneumoniae; read-out: MIC S. pneum. DSM-11865 (PRSP)
Method: as §1, §2, §3, §4, §5, §6

K. pneum. R-1525 = type: cell-based; conditions: Klebsiella pneumoniae; read-out: MIC K. pneum. R-1525
Method: as §1, §2, §3, §4, §5, §6

E. ae. CIP 106754 = type: cell-based, Enterobacter aerogenes; conditions: Klebsiella aerogenes, CIP106754, read-out: MIC E. ae. CIP 106754
Method: as §1, §2, §3, §4, §5, §6

E. faec. DSM-17050 (VRE) = type: cell-based, Enterococcus faecium; conditions: Enterococcus; read-out: MIC E. faec. DSM-17050 (VRE)
Method: as §1, §2, §3, §4, §5, §6

K. pneum. CIP-104298 = type: cell-based; conditions: Klebsiella pneumoniae, CIP104298; reference strain; read-out: MIC K. pneum. CIP-104298
Method: as §1, §2, §3, §4, §5, §6

P. ae. PA14ΔmexAB = type: cell-based; conditions: Pseudomonas aeruginosa, read-out: MIC P. ae. PA14ΔmexAB
Method: as §1, §2, §3, §4, §5, §6

P. ae. PA14 = type: cell-based; conditions: Pseudomonas aeruginosa, PA14; reference strain; read-out: MIC P. ae. PA14
Method: as §1, §2, §3, §4, §5, §6

A. baum. DSM-30008 = type: cell-based; conditions: Acinetobacter baumannii, DSM30008; reference strain; read-out: MIC A. baum. DSM-30008
Method: as §1, §2, §3, §4, §5, §6

A. baum. CIP-105742 = type: cell-based; conditions: Acinetobacter baumannii, CIP105742; read-out: MIC A. baum. CIP-105742
Method: as §1, §2, §3, §4, §5, §6

## C#CC[C@H](NC(=O)c1ccc(NC(=O)c2ccc(C#N)cc2)cc1)C(=O)Nc1ccc(C(=O)Nc2ccc(C(=O)Nc3ccc(C(=O)O)cc3)c(O)c2OC)cc1 [Cmpd. 10]
A. baum. ATCC BAA-1710
  MIC: 0.25 µg/mL (≈ 0.327 µM)
E. coli LM705
  MIC: < 0.03 µg/mL
A. baum. CIP-107292
  MIC: 4 µg/mL (≈ 5.23 µM)
S. aur. ATCC-29213
  MIC: 0.5 µg/mL (≈ 0.654 µM)
K. pneum. KP10581
  MIC: 1 µg/mL (≈ 1.31 µM)
E. coli ATCC-25922
  MIC: < 0.03 µg/mL
A. baum. R835
  MIC: 4 µg/mL (≈ 5.23 µM)
E. cloacae ATCC BAA-2468
  MIC: 16 µg/mL (≈ 20.9 µM)
[1]
  MIC: < 0.03 µg/mL
K. pneum. R-1525
  MIC: 32 µg/mL (≈ 41.8 µM)
E. ae. CIP 106754
  MIC: 4 µg/mL (≈ 5.23 µM)

## C#CC[C@H](NC(=O)c1ccc(NC(=O)c2ccc(C#N)cc2)cc1)C(=O)Nc1ccc(CNc2ccc(C(=O)Nc3ccc(C(=O)O)cc3)c(O)c2OC(C)C)cc1 [Cmpd. 40]
E. faec. DSM-17050 (VRE)
  MIC: 0.25 µg/mL (≈ 0.321 µM)
K. pneum. CIP-104298
  MIC: > 64 µg/mL
A. baum. ATCC BAA-1710
  MIC: 0.5 µg/mL (≈ 0.642 µM)
E. coli LM705
  MIC: > 64 µg/mL
P. ae. PA14ΔmexAB
  MIC: 2 µg/mL (≈ 2.57 µM)
A. baum. CIP-107292
  MIC: > 8 µg/mL
P. ae. PA14
  MIC: > 64 µg/mL
S. aur. ATCC-29213
  MIC: 0.5 to 1 µg/mL (≈ 0.642 to 1.28 µM)
K. pneum. KP10581
  MIC: 1 µg/mL (≈ 1.28 µM)
E. coli ATCC-25922
  MIC: 0.5 to 1 µg/mL (≈ 0.642 to 1.28 µM)
A. baum. R835
  MIC: > 8 µg/mL
E. cloacae ATCC BAA-2468
  MIC: > 64 µg/mL
[1]
  MIC: > 64 µg/mL
A. baum. DSM-30008
  MIC: 0.5 µg/mL (≈ 0.642 µM)
A. baum. CIP-105742
  MIC: 0.25 µg/mL (≈ 0.321 µM)
K. pneum. R-1525
  MIC: > 64 µg/mL
E. ae. CIP 106754
  MIC: > 64 µg/mL

## C#CC[C@H](NC(=O)c1ccc(NC(=O)c2ccc(C#N)cc2)cc1)C(=O)Nc1ccc(C(=O)Nc2ccc3c(=O)n(-c4ccc(C(=O)O)cc4)c(C)nc3c2OC(C)C)cc1 [Cmpd. 45a]
E. faec. DSM-17050 (VRE)
  MIC: 2 to 4 µg/mL (≈ 2.45 to 4.9 µM)
K. pneum. CIP-104298
  MIC: > 64 µg/mL
A. baum. ATCC BAA-1710
  MIC: 0.5 to 1 µg/mL (≈ 0.613 to 1.23 µM)
E. coli LM705
  MIC: > 64 µg/mL
P. ae. PA14ΔmexAB
  MIC: 16 to 32 µg/mL (≈ 19.6 to 39.2 µM)
A. baum. CIP-107292
  MIC: > 8 µg/mL
P. ae. PA14
  MIC: > 64 µg/mL
S. aur. ATCC-29213
  MIC: 4 µg/mL (≈ 4.9 µM)
K. pneum. KP10581
  MIC: 4 µg/mL (≈ 4.9 µM)
E. coli ATCC-25922
  MIC: 2 to 4 µg/mL (≈ 2.45 to 4.9 µM)
A. baum. R835
  MIC: > 8 µg/mL
E. cloacae ATCC BAA-2468
  MIC: > 64 µg/mL
[1]
  MIC: > 64 µg/mL
A. baum. DSM-30008
  MIC: 8 µg/mL (≈ 9.81 µM)
A. baum. CIP-105742
  MIC: 4 µg/mL (≈ 4.9 µM)
K. pneum. R-1525
  MIC: > 64 µg/mL
E. ae. CIP 106754
  MIC: > 64 µg/mL

## C#CC[C@H](NC(=O)c1ccc(NC(=O)c2ccc(C#N)cc2)cc1)C(=O)Nc1ccc(C(=O)Nc2ccc3c(=O)n(-c4ccc(C(=O)O)cc4)cnc3c2OC(C)C)cc1 [Cmpd. 45b]
E. faec. DSM-17050 (VRE)
  MIC: 1 µg/mL (≈ 1.25 µM)
K. pneum. CIP-104298
  MIC: > 64 µg/mL
A. baum. ATCC BAA-1710
  MIC: > 8 µg/mL
E. coli LM705
  MIC: > 64 µg/mL
P. ae. PA14ΔmexAB
  MIC: > 64 µg/mL
A. baum. CIP-107292
  MIC: > 8 µg/mL
P. ae. PA14
  MIC: > 64 µg/mL
S. aur. ATCC-29213
  MIC: 8 µg/mL (≈ 9.98 µM)
K. pneum. KP10581
  MIC: 16 µg/mL (≈ 20 µM)
E. coli ATCC-25922
  MIC: 1 µg/mL (≈ 1.25 µM)
A. baum. R835
  MIC: > 8 µg/mL
E. cloacae ATCC BAA-2468
  MIC: > 64 µg/mL
[1]
  MIC: > 64 µg/mL
A. baum. DSM-30008
  MIC: 1 to 2 µg/mL (≈ 1.25 to 2.49 µM)
A. baum. CIP-105742
  MIC: 2 µg/mL (≈ 2.49 µM)
K. pneum. R-1525
  MIC: > 64 µg/mL
E. ae. CIP 106754
  MIC: > 64 µg/mL

## CO[C@@H](C(N)=O)[C@H](NC(=O)c1ccc(NC(=O)c2ccc(C#N)cc2)cc1)C(=O)Nc1ccc(C(=O)Nc2ccc(C(=O)N(C)c3ccc(C(=O)O)cc3)c(O)c2OC(C)C)cc1 [Cmpd. 46]
E. faec. DSM-17050 (VRE)
  MIC: > 64 µg/mL
K. pneum. CIP-104298
  MIC: > 64 µg/mL
A. baum. ATCC BAA-1710
  MIC: > 8 µg/mL
E. coli LM705
  MIC: > 64 µg/mL
P. ae. PA14ΔmexAB
  MIC: > 64 µg/mL
A. baum. CIP-107292
  MIC: > 8 µg/mL
P. ae. PA14
  MIC: > 64 µg/mL
S. aur. ATCC-29213
  MIC: > 64 µg/mL
K. pneum. KP10581
  MIC: > 64 µg/mL
E. coli ATCC-25922
  MIC: < 0.03 µg/mL
A. baum. R835
  MIC: > 8 µg/mL
E. cloacae ATCC BAA-2468
  MIC: > 64 µg/mL
[1]
  MIC: > 64 µg/mL
A. baum. DSM-30008
  MIC: > 8 µg/mL
A. baum. CIP-105742
  MIC: > 8 µg/mL
K. pneum. R-1525
  MIC: > 64 µg/mL
E. ae. CIP 106754
  MIC: > 64 µg/mL

## C#CC[C@H](NC(=O)c1ccc(NC(=O)c2ccc(C#N)cc2)cc1)C(=O)Nc1ccc(C(=O)Nc2ccc(-c3ncc4cc(C(=O)O)ccc4n3)c(O)c2OC(C)C)cc1 [Cmpd. 47]
K. pneum. CIP-104298
  MIC: > 64 µg/mL
E. coli LM705
  MIC: > 64 µg/mL
P. ae. PA14ΔmexAB
  MIC: > 64 µg/mL
A. baum. CIP-107292
  MIC: > 64 µg/mL
P. ae. PA14
  MIC: > 64 µg/mL
S. aur. ATCC-29213
  MIC: > 64 µg/mL
K. pneum. KP10581
  MIC: > 64 µg/mL
A. baum. R835
  MIC: > 64 µg/mL
A. baum. DSM-30008
  MIC: > 64 µg/mL
A. baum. CIP-105742
  MIC: > 64 µg/mL

## C#CC[C@H](NC(=O)c1ccc(NC(=O)c2ccc(C#N)cc2)cc1)C(=O)Nc1ccc(C(=O)Nc2ccc(-c3nc4ccc(C(=O)O)cc4[nH]3)c(O)c2OC(C)C)cc1 [Cmpd. 48]
E. faec. DSM-17050 (VRE)
  MIC: 2 µg/mL (≈ 2.53 µM)
K. pneum. CIP-104298
  MIC: > 64 µg/mL
A. baum. ATCC BAA-1710
  MIC: > 8 µg/mL
E. coli LM705
  MIC: > 64 µg/mL
P. ae. PA14ΔmexAB
  MIC: > 64 µg/mL
A. baum. CIP-107292
  MIC: > 8 µg/mL
P. ae. PA14
  MIC: > 64 µg/mL
S. aur. ATCC-29213
  MIC: 4 µg/mL (≈ 5.06 µM)
K. pneum. KP10581
  MIC: 16 µg/mL (≈ 20.3 µM)
E. coli ATCC-25922
  MIC: 64 µg/mL (≈ 81 µM)
A. baum. R835
  MIC: > 8 µg/mL
E. cloacae ATCC BAA-2468
  MIC: > 64 µg/mL
[1]
  MIC: > 64 µg/mL
A. baum. DSM-30008
  MIC: 8 µg/mL (≈ 10.1 µM)
A. baum. CIP-105742
  MIC: > 8 µg/mL
K. pneum. R-1525
  MIC: > 64 µg/mL
E. ae. CIP 106754
  MIC: > 64 µg/mL
